Experimental data taken from patent publication US6476046B1, “Diazabicyclo[4.3.0]nonanes, and methods of use thereof” (Sepracor, Inc., priority 2000, dated 2002).
Read-outs that look alike come from different tables or passages of the source.

Assays:
[1] = In vivo analgesia, hot plate test; settings: Rattus norvegicus
Text: (§1) Various experimental procedures, well known in the art, are useful in the present invention to assess the analgesic effect of compounds, such as the “tail flick” and “hot plate” tests. The “tail flick” test can be performed by applying a noxious thermal stimulus to the rat's tail and determining the time until the nociceptive tail flick occurs.
(§2) In vivo Analgesia Experiments

[2] = target: human opiate receptor δ (Homo sapiens, UniProt P41143); assay: Radioligand binding assay, human opiate receptor δ
Experimental: (§3) Radioligand Binding Assays (IC50, μM)
(§4) The radiobinding assays for human opiate receptor μ, κ and δ are conducted according the procedures outlined by Maguire et al. (Eur. Pharmacol. 1992, 213, 219).

[3] = In vivo analgesia, tail flick model; settings: Rattus norvegicus
Experimental: as §1, §2
The tail flick model was conducted according to D'Amour F. E. and Smith D. L. J. Pharmacol. Exp. Ther. 1941, 72, 74.

[4] = target: human opiate receptor μ (Homo sapiens, UniProt P35372); assay: Radioligand binding assay, human opiate receptor μ
Text: Another assay useful in the present invention concerns determining the ability of a ligand to bind to a biological receptor utilizing a technique well known in the art referred to as a radioligand binding assay. This assay accurately determines the specific binding of a radioligand to a targeted receptor through the delineation of its total and nonspecific binding components. Total binding is defined as the amount of radioligand that remains following the rapid separation of the radioligand bound in a receptor preparation (cell homogenates or recombinate receptors) from that which is unbound. The nonspecific binding component is defined as the amount of radioligand that remains following separation of the reaction mixture consisting of receptor, radioligand and an excess of unlabeled ligand. Under this condition, the only radioligand that remains represents that which is bound to components other that receptor. The specific radioligand bound is determined by subtracting the nonspecific from total radioactivity bound. For a specific example of radioligand binding assay for μ-opioid receptor, see Wang, J. B. et al. FEBS Letters 1994, 338, 217.
as §3, §4

[5] = target: human opiate receptor κ (Homo sapiens, UniProt P41145); assay: Radioligand binding assay, human opiate receptor κ
Experimental: as §3, §4

[6] = radioligand binding, human opiate receptor δ, read-out: δ (IC50)
[7] = radioligand binding, human opiate receptor μ, read-out: μ (IC50)
[8] = radioligand binding, human opiate receptor κ, read-out: κ (IC50)

Chain of human opiate receptor μ (P35372 whole entry): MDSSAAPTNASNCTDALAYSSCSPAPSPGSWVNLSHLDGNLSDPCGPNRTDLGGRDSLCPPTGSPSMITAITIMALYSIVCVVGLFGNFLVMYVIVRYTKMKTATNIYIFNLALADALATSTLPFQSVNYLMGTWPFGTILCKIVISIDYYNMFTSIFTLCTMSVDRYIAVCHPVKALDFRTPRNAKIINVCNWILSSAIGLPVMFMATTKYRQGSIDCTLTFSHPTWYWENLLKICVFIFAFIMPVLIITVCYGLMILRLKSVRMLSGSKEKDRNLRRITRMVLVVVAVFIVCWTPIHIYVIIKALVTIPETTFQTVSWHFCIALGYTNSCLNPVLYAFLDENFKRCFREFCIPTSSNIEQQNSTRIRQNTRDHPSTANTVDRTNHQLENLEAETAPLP
Chain of human opiate receptor κ (P41145 whole entry): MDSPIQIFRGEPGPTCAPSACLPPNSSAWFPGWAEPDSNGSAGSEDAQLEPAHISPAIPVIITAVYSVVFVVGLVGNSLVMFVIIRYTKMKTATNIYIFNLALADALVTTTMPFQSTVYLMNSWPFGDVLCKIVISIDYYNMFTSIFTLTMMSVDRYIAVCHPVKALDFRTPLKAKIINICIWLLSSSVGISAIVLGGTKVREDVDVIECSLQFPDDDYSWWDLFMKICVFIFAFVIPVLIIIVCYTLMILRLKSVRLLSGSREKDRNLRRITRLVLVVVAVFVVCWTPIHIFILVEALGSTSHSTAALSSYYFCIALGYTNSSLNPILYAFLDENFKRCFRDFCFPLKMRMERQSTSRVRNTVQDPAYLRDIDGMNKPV
Chain of human opiate receptor δ (P41143 whole entry): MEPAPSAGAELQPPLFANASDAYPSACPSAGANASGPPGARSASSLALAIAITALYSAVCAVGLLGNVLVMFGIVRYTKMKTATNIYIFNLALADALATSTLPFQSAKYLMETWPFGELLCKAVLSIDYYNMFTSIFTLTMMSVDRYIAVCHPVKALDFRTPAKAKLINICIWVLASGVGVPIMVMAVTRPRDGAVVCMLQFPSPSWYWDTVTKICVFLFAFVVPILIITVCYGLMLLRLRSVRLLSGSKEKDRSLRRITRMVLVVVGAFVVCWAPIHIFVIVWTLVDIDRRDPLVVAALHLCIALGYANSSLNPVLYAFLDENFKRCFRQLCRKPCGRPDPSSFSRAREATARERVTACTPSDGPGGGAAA

In the case of `CCC(=O)N(C[C@@]12CN(CCc3ccccc3)CCC1CN(CCc1ccccc1)C2)c1ccccc1` (single isomer, unassigned) [Compound 37], the ED50 [1] is reported as 0.06 mg/kg, the IC50 [2, 6] is reported as less than 1000 nM and the ED50 [3] is reported as 0.05 mg/kg. The IC50 [4, 7] was less than 10 nM and the IC50 [5, 8] was less than 1000 nM.

Molecule `CCC(=O)N(C[C@]12CN(CCc3ccccc3)CCC1CN(CCc1ccccc1)C2)c1ccccc1` (single isomer, unassigned) [Compound 38] has an ED50 [1] of 152 mg/kg, an IC50 [2, 6] of less than 1000 nM and an ED50 [3] of 0.18 mg/kg. It also gave an IC50 [4, 7] of less than 100 nM and an IC50 [5, 8] of less than 5000 nM.

With `O[C@@H](c1ccccc1)C12CN(CCc3ccccc3)CCC1CN(Cc1ccccc1)C2` (some centres unmarked) [Compound 11] the IC50 [4, 7] was less than 1000 nM and the IC50 [5, 8] was less than 5000 nM.

Molecule `O[C@H](c1ccccc1)C12CN(CCc3ccccc3)CCC1CN(Cc1ccccc1)C2` (some centres unmarked) [Compound 12] has an IC50 [4, 7] of less than 1000 nM and an IC50 [5, 8] of less than 5000 nM.

With `COc1cccc(C(O)C23CN(CCc4ccccc4)CCC2CN(Cc2ccccc2)C3)c1` (centres unmarked) [Compound 14] the IC50 [4, 7] was less than 1000 nM.

In the case of `CCC(=O)N(CC12CN(CCc3ccccc3)CCC1CN(Cc1ccccc1)C2)c1ccccc1` (centres unmarked) [Compound 23], the IC50 [2, 6] is reported as less than 1000 nM, the IC50 [4, 7] is reported as less than 100 nM and the IC50 [5, 8] is reported as less than 5000 nM.

Work on `CS(=O)(=O)N(CC12CN(CCc3ccccc3)CCC1CN(Cc1ccccc1)C2)c1ccccc1` (centres unmarked) [Compound 25] yielded an IC50 [4, 7] of less than 1000 nM and an IC50 [5, 8] of less than 10000 nM.

`CCC(=O)N(c1ccccc1)C(C)C12CN(CCc3ccccc3)CCC1CN(Cc1ccccc1)C2` (centres unmarked) [Compound 31] showed an IC50 [2] of less than 1000 nM, an IC50 [4] of less than 10 nM and an IC50 [5] of less than 5000 nM.

In the case of `C[C@H](N(C(=O)C1CCC1)c1ccccc1)C12CN(CCc3ccccc3)CCC1CN(Cc1ccccc1)C2` (some centres unmarked) [Compound 32], the IC50 [2] is reported as less than 1000 nM, the IC50 [4] is reported as less than 100 nM and the IC50 [5] is reported as less than 5000 nM.

With `C[C@@H](N(C(=O)C1CCC1)c1ccccc1)C12CN(CCc3ccccc3)CCC1CN(Cc1ccccc1)C2` (some centres unmarked) [Compound 33] the IC50 [2] was less than 5000 nM, the IC50 [4] was less than 1000 nM and the IC50 [5] was less than 5000 nM.

`CCC(=O)N(CC12CN(CCc3ccccc3)CCC1CN(CCc1ccccc1)C2)c1ccccc1` (centres unmarked) [Compound 36] showed an IC50 [2] of less than 1000 nM, an IC50 [4] of less than 10 nM and an IC50 [5] of less than 5000 nM.

Work on `CCC(=O)N(CC12CN(CCc3ccccc3)CCC1CN(C(C)=O)C2)c1ccccc1` (centres unmarked) [Compound 40] yielded an IC50 [4, 7] of less than 1000 nM.

Work on `CCC(=O)N(CC12CN(CCc3ccccc3)CCC1CN(S(C)(=O)=O)C2)c1ccccc1` (centres unmarked) [Compound 41] yielded an IC50 [4, 7] of less than 1000 nM.

Work on `CCC(=O)N(CC12CN(C)CC1CCN(CCc1ccccc1)C2)c1ccccc1` (centres unmarked) [Compound 42] yielded an IC50 [4, 7] of less than 1000 nM.
